{
  "source": "patent US7528284B2",
  "about": "“Method for producing xylylenediamine (XDA)” (BASF Aktiengesellschaft, priority 2003, dated 2009)",
  "experiment": "Investigations of solubility of IPN in different solvents",
  "format": "physicochemical",
  "method": "Investigations of Solubility of IPN in Different Solvents\nAt 60° C., the solubility of IPN in mesitylene or pseudocumene is in each case below 10% by weight.",
  "data": [
    {"smiles": "N#Cc1cccc(C#N)c1", "note": "[IPN, 1,3-dicyanobenzene]", "values": [
      {"measurement": "solubility of IPN in NMP", "setting": "at 60° C.", "value": "approx. 26 % by weight"},
      {"measurement": "solubility of IPN in NMP", "setting": "at 90° C.", "value": "approx. 41 % by weight"},
      {"measurement": "solubility of IPN in mesitylene", "setting": "at 60° C.", "value": "below 10 % by weight"},
      {"measurement": "solubility of IPN in mesitylene", "setting": "at 90° C.", "value": 12, "unit": "% by weight"},
      {"measurement": "solubility of IPN in pseudocumene", "setting": "at 60° C.", "value": "below 10 % by weight"},
      {"measurement": "solubility of IPN in pseudocumene", "setting": "at 90° C.", "value": 20, "unit": "% by weight"}
    ]}
  ]
}
